Assay results published in PubChem BioAssay (NCI).
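Assay format: 96-well plates, 48-hour exposure. GI50 marks 50% less growth. TGI denotes the concentration required for complete inhibition of growth.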

How the values were obtained:
Test in all cases: NCI-60 cell line screen, 48 h
T-47D breast = system: T-47D breast
PC-3 prostate = system: PC-3 prostate
CAKI-1 renal = system: CAKI-1 renal
ACHN renal = system: ACHN renal
SNB-19 CNS = system: SNB-19 CNS
HCT-15 colon = system: HCT-15 colon
MDA-MB-435 = system: MDA-MB-435
OVCAR-4 ovarian = system: OVCAR-4 ovarian
M14 melanoma = system: M14 melanoma
SR leukemia = system: SR leukemia
HCC-2998 colon = system: HCC-2998 colon
A498 renal = system: A498 renal
TK-10 renal = system: TK-10 renal
K-562 leukemia = system: K-562 leukemia
RPMI-8226 leukemia = system: RPMI-8226 leukemia
OVCAR-3 ovarian = system: OVCAR-3 ovarian
HL-60(TB) leukemia = system: HL-60(TB) leukemia
NCI/ADR-RES ovarian = system: NCI/ADR-RES ovarian
KM12 colon = system: KM12 colon
MDA-MB-468 breast = system: MDA-MB-468 breast
U251 CNS = system: U251 CNS
HOP-92 NSCLC = system: HOP-92 NSCLC
UACC-257 melanoma = system: UACC-257 melanoma
OVCAR-5 ovarian = system: OVCAR-5 ovarian
SNB-75 CNS = system: SNB-75 CNS
SF-295 CNS = system: SF-295 CNS
CCRF-CEM leukemia = system: CCRF-CEM leukemia
A549 NSCLC = system: A549 NSCLC
UACC-62 melanoma = system: UACC-62 melanoma
786-0 renal = system: 786-0 renal
IGROV1 ovarian = system: IGROV1 ovarian
MOLT-4 leukemia = system: MOLT-4 leukemia
OVCAR-8 ovarian = system: OVCAR-8 ovarian
SN12C renal = system: SN12C renal
SF-268 CNS = system: SF-268 CNS
HS 578T breast = system: HS 578T breast
RXF 393 renal = system: RXF 393 renal
NCI-H522 lung = system: NCI-H522 lung
HT29 colon = system: HT29 colon
COLO 205 colon = system: COLO 205 colon
MDA-MB-231 breast = system: MDA-MB-231 breast
SK-MEL-28 melanoma = system: SK-MEL-28 melanoma
SF-539 CNS = system: SF-539 CNS
HCT-116 colon = system: HCT-116 colon
SW-620 colon = system: SW-620 colon
UO-31 renal = system: UO-31 renal
NCI-H460 lung = system: NCI-H460 lung
DU-145 prostate = system: DU-145 prostate
EKVX NSCLC = system: EKVX NSCLC
MCF7 breast = system: MCF7 breast
MALME-3M melanoma = system: MALME-3M melanoma
HOP-62 NSCLC = system: HOP-62 NSCLC
NCI-H23 lung = system: NCI-H23 lung
SK-MEL-5 melanoma = system: SK-MEL-5 melanoma
LOX IMVI melanoma = system: LOX IMVI melanoma
SK-MEL-2 melanoma = system: SK-MEL-2 melanoma
NCI-H226 lung = system: NCI-H226 lung
SK-OV-3 ovarian = system: SK-OV-3 ovarian
BT-549 breast = system: BT-549 breast

NS(=O)(=O)c1cccc(Nc2nc(SCC(=O)c3ccc(F)cc3)nc3ccccc23)c1
GI50 (T-47D breast): 3.18 µM
TGI (T-47D breast): > 57.7 µM
GI50 (PC-3 prostate): 16.8 µM
TGI (PC-3 prostate): > 57.7 µM
GI50 (CAKI-1 renal): 13.1 µM
TGI (CAKI-1 renal): > 57.7 µM
GI50 (ACHN renal): 24.7 µM
TGI (ACHN renal): > 57.7 µM
GI50 (SNB-19 CNS): 22.3 µM
TGI (SNB-19 CNS): > 57.7 µM
GI50 (HCT-15 colon): 11.6 µM
TGI (HCT-15 colon): > 57.7 µM
GI50 (MDA-MB-435): 14.2 µM
TGI (MDA-MB-435): > 57.7 µM
GI50 (OVCAR-4 ovarian): 9.34 µM
TGI (OVCAR-4 ovarian): > 57.7 µM
GI50 (M14 melanoma): 27.2 µM
TGI (M14 melanoma): > 57.7 µM
GI50 (SR leukemia): 15.9 µM
TGI (SR leukemia): > 57.7 µM
GI50 (HCC-2998 colon): 15.7 µM
TGI (HCC-2998 colon): > 57.7 µM
GI50 (A498 renal): > 57.7 µM
TGI (A498 renal): > 57.7 µM
GI50 (TK-10 renal): > 57.7 µM
TGI (TK-10 renal): > 57.7 µM
GI50 (K-562 leukemia): 13 µM
TGI (K-562 leukemia): > 57.7 µM
GI50 (RPMI-8226 leukemia): 12.7 µM
TGI (RPMI-8226 leukemia): > 57.7 µM
GI50 (OVCAR-3 ovarian): 12.9 µM
TGI (OVCAR-3 ovarian): > 57.7 µM
GI50 (HL-60(TB) leukemia): 15 µM
TGI (HL-60(TB) leukemia): 48.9 µM
GI50 (NCI/ADR-RES ovarian): 37.3 µM
TGI (NCI/ADR-RES ovarian): > 57.7 µM
GI50 (KM12 colon): 7.42 µM
TGI (KM12 colon): > 57.7 µM
GI50 (MDA-MB-468 breast): 6.23 µM
TGI (MDA-MB-468 breast): 42.8 µM
GI50 (U251 CNS): 18.6 µM
TGI (U251 CNS): > 57.7 µM
GI50 (HOP-92 NSCLC): 16.4 µM
TGI (HOP-92 NSCLC): > 57.7 µM
GI50 (UACC-257 melanoma): 23.4 µM
TGI (UACC-257 melanoma): > 57.7 µM
GI50 (OVCAR-5 ovarian): 24.5 µM
TGI (OVCAR-5 ovarian): > 57.7 µM
GI50 (SNB-75 CNS): 3.64 µM
TGI (SNB-75 CNS): > 57.7 µM
GI50 (SF-295 CNS): 14.6 µM
TGI (SF-295 CNS): > 57.7 µM
GI50 (CCRF-CEM leukemia): 7.76 µM
TGI (CCRF-CEM leukemia): > 57.7 µM
GI50 (A549 NSCLC): 26.8 µM
TGI (A549 NSCLC): > 57.7 µM
GI50 (UACC-62 melanoma): 13.7 µM
TGI (UACC-62 melanoma): > 57.7 µM
GI50 (786-0 renal): 39.1 µM
TGI (786-0 renal): > 57.7 µM
GI50 (IGROV1 ovarian): 9.82 µM
TGI (IGROV1 ovarian): > 57.7 µM
GI50 (MOLT-4 leukemia): 7.43 µM
TGI (MOLT-4 leukemia): 41.3 µM
GI50 (OVCAR-8 ovarian): 19.6 µM
TGI (OVCAR-8 ovarian): > 57.7 µM
GI50 (SN12C renal): 17.6 µM
TGI (SN12C renal): > 57.7 µM
GI50 (SF-268 CNS): 21 µM
TGI (SF-268 CNS): > 57.7 µM
GI50 (HS 578T breast): 12.9 µM
TGI (HS 578T breast): > 57.7 µM
GI50 (RXF 393 renal): 16.5 µM
TGI (RXF 393 renal): > 57.7 µM
GI50 (NCI-H522 lung): 11.7 µM
TGI (NCI-H522 lung): 54.3 µM
GI50 (HT29 colon): 20 µM
TGI (HT29 colon): > 57.7 µM
GI50 (COLO 205 colon): 26.8 µM
TGI (COLO 205 colon): > 57.7 µM
GI50 (MDA-MB-231 breast): 15.9 µM
TGI (MDA-MB-231 breast): > 57.7 µM
GI50 (SK-MEL-28 melanoma): 20.4 µM
TGI (SK-MEL-28 melanoma): > 57.7 µM
GI50 (SF-539 CNS): 20 µM
TGI (SF-539 CNS): > 57.7 µM
GI50 (HCT-116 colon): 15.3 µM
TGI (HCT-116 colon): > 57.7 µM
GI50 (SW-620 colon): 18.1 µM
TGI (SW-620 colon): > 57.7 µM
GI50 (UO-31 renal): 15.5 µM
TGI (UO-31 renal): > 57.7 µM
GI50 (NCI-H460 lung): 15.1 µM
TGI (NCI-H460 lung): > 57.7 µM
GI50 (DU-145 prostate): 19.9 µM
TGI (DU-145 prostate): > 57.7 µM
GI50 (EKVX NSCLC): 18.4 µM
TGI (EKVX NSCLC): > 57.7 µM
GI50 (MCF7 breast): 3.81 µM
TGI (MCF7 breast): > 57.7 µM
GI50 (MALME-3M melanoma): 27.1 µM
TGI (MALME-3M melanoma): > 57.7 µM
GI50 (HOP-62 NSCLC): 22.2 µM
TGI (HOP-62 NSCLC): > 57.7 µM
GI50 (NCI-H23 lung): 16.5 µM
TGI (NCI-H23 lung): > 57.7 µM
GI50 (SK-MEL-5 melanoma): 12.9 µM
TGI (SK-MEL-5 melanoma): 54.6 µM
GI50 (LOX IMVI melanoma): 14.3 µM
TGI (LOX IMVI melanoma): > 57.7 µM
GI50 (SK-MEL-2 melanoma): 13.5 µM
TGI (SK-MEL-2 melanoma): > 57.7 µM
GI50 (NCI-H226 lung): 12.1 µM
TGI (NCI-H226 lung): > 57.7 µM
GI50 (SK-OV-3 ovarian): 30.4 µM
TGI (SK-OV-3 ovarian): > 57.7 µM
GI50 (BT-549 breast): 31.3 µM
TGI (BT-549 breast): > 57.7 µM
